Laboratory results from paper PMC8597046, “Use of Mixture Dosing and Nonlinear Mixed Effect Modeling of Eight Environmental Contaminants in Rabbits to Improve Extrapolation Value of Toxicokinetic Data” (Environmental Health Perspectives, 2021).
Like-named read-outs stand apart in the source and are kept apart here.

Experiments:
[1] = TK assay, oral mixture dosing: serum concentrations and noncompartmental analysis (sparse data); settings: female, rabbit, in vivo, po
Procedure, shortened: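 Female New Zealand white rabbits (10-wk, 2.37±0.14kg) got the compound mixture IV via ear-vein catheter or orally into the mouth; serum sampled 15 min to 28 d, 3 (or 6 at 30 min) rabbits per time. Sparse-data noncompartmental analysis gave AUC (linear trapezoidal), CL or CL_F, half-life and F.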

[2] = Nonlinear mixed effect (NLME) compartmental modeling of merged IV and oral serum concentrations; settings: for AUCVO/dose: oral dosing; for tvK12 (distribution rate constant) / tvK21 (distribution rate constant) / tvVc (volume of the central compartment) / tvKabs (rate constant of absorption): population primary parameter, typical value; for tvKabs (rate constant of absorption): MEHP after oral DEHP; for Volume(s) of the peripheral compartment: for PFOA first peripheral compartment
Procedure, shortened: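 Rabbit serum concentrations after IV and oral dosing fitted jointly by NLME compartmental modeling (−2LL minimization, Laplacian or QRPEM), exponential between-subject variability, combined additive/proportional error. CL, V2, Q, VZ, AUC (Dose/CL) and terminal half-life derived from population primary parameters.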

[3] = rodents, cited from earlier work
[4] = rabbit, in vivo; cited from earlier work
[5] = New Zealand white (INRA 1777 line)
[6] = New Zealand white (INRA 1777 line), Serum concentration, oral, rabbit 13, […], MEHP after oral DEHP
[7] = New Zealand white (INRA 1777 line), Serum concentration, oral, rabbit 14, […], MEHP after oral DEHP
[8] = New Zealand white (INRA 1777 line), Serum concentration, oral, rabbit 15, 23.98 h, MEHP after oral DEHP
[9] = New Zealand white (INRA 1777 line), Serum concentration, rabbit 21, 168.00 h
[10] = New Zealand white (INRA 1777 line), Serum concentration, rabbit 22, 672.02 h
[11] = New Zealand white (INRA 1777 line), Serum concentration, rabbit 23, 671.96 h
[12] = New Zealand white (INRA 1777 line), Serum concentration, rabbit 24, 672.02 h
[13] = New Zealand white, Serum concentration, oral, rabbit 16, 72.00 h, MEHP after oral DEHP
[14] = New Zealand white, Serum concentration, oral, rabbit 17, 72.00 h, MEHP after oral DEHP
[15] = New Zealand white, Serum concentration, oral, rabbit 18, 71.96 h, MEHP after oral DEHP
[16] = New Zealand white, Serum concentration, rabbit 19, 168.02 h
[17] = New Zealand white, Serum concentration, rabbit 20, 168.00 h
[18] = female, New Zealand white (INRA 1777 line), rabbit, in vivo
[19] = female, New Zealand white (INRA 1777 line), rabbit, in vivo, po, Oral bioavailability (F), NLME model
[20] = female, New Zealand white, rabbit, in vivo
[21] = female, New Zealand white, rabbit, in vivo, Clearance, population secondary parameter, mean
[22] = female, New Zealand white, rabbit, in vivo, iv
[23] = female, New Zealand white, rabbit, in vivo, po
[24] = female, New Zealand white, rabbit, in vivo, po, Bioavailability, population secondary parameter, mean, as fraction
[25] = population secondary parameter, mean
[26] = New Zealand white (INRA 1777 line), Serum concentration
[27] = New Zealand white, Serum concentration

## Brc1ccc(Oc2ccc(Br)cc2Br)c(Br)c1 [BDE-47, 2,2′,4,4′-tetrabromodiphenyl ether]
[1]; [5]
  AUC(0-inf): 79.5 µM·h
  CL/F: 5 mL/min/kg
  Cmax: 640 nM
  MRT: 10.8 days
  Tmax: 24 h
  Vd/F: 116 L/kg
  bioavailability: 78%
  half-life: 11.1 days
[1]; [6]
  concentration at 24 h: 770 nM
[1]; [7]
  concentration at 24 h: 510 nM
[1]; [8]
  concentration at 23.98 h: 300 nM
[1]; [9]
  concentration at 168 h: 110 nM
[1]; New Zealand white (INRA 1777 line), Serum concentration, rabbit 22, 0.57 h
  concentration at 0.57 h: 12 nM
[1]; [10]
  concentration at 672.02 h: 17 nM
[1]; New Zealand white (INRA 1777 line), Serum concentration, rabbit 23, 0.55 h
  concentration at 0.55 h: 33 nM
[1]; [11]
  concentration at 671.96 h: 27 nM
[1]; New Zealand white (INRA 1777 line), Serum concentration, rabbit 24, 0.55 h
  concentration at 0.55 h: 110 nM
[1]; [12]
  concentration at 672.02 h: 30 nM
[1]; [13]
  concentration at 72 h: 160 nM
[1]; [14]
  concentration at 72 h: 210 nM
[1]; [15]
  concentration at 71.96 h: 300 nM
[1]; [16]
  concentration at 168.02 h: 92 nM
[1]; [17]
  concentration at 168 h: 120 nM
[2]; [18]
  Vd: 45 L/kg
  k el: 1.8e-05 s⁻¹
[2]; [19]
  bioavailability: > 85%
[2]; [20]
  MRT: 133 h
  half-life: 6.79 days
[2]; [21]
  clearance: 5.67 mL/min/kg
[2]; [22]
  AUC: 29 µM·h
[2]; [23]
  AUC: 71 µM·h
[2]; [24]
  bioavailability: 96%
[2]
  AUCVO/dose: 2.97 μmol×h/L per μmol/kg BW
[2]; mean
  tvK12 (distribution rate constant): 0.0697 h⁻¹
  tvK21 (distribution rate constant): 0.009154 h⁻¹
  tvVc (volume of the central compartment): 5.188 L/kg
  tvKabs (rate constant of absorption): 0.02289 h⁻¹
[2]; [25]
  Volume(s) of the peripheral compartment: 39 L/kg
[3]; ref Staskal et al. 2005
  Intestinal absorption: 82%

## Clc1c(Cl)c(Cl)c(Cl)c(Cl)c1Cl [HCB, hexachlorobenzene]
[1]; [5]
  AUC(0-inf): 340 µM·h
  CL/F: 1.33 mL/min/kg
  Cmax: 505 nM
  MRT: 46.5 days
  Tmax: 24 h
  Vd/F: 95 L/kg
  bioavailability: 64%
  half-life: 34 days
[1]; New Zealand white (INRA 1777 line), 24 h
  Serum concentration: 0.37 µmol/L
[1]; [26]
  concentration at 0.57 h: 66 nM
  concentration at 23.98 h: 370 nM
  concentration at 24 h: 640 nM
  concentration at 168 h: 290 nM
  concentration at 671.96 h: 160 nM
[1]; New Zealand white, 72 h
  Serum concentration: 0.40 µmol/L
[1]; [27]
  concentration at 71.96 h: 490 nM
  concentration at 72 h: 220 nM
  concentration at 168 h: 240 nM
  concentration at 168.02 h: 240 nM
[2]; [18]
  VSS: 33 to 45 L/kg
  Vd: 35 L/kg
  k el: 9.74e-07 s⁻¹
[2]; female, New Zealand white (INRA 1777 line), rabbit, in vivo, po
  tvf (ilogit of the oral bioavailability): 0.03625
[2]; female, New Zealand white (INRA 1777 line), rabbit, in vivo, po, Oral bioavailability (F)
  bioavailability: ~50%
[2]; [20]
  Clearance: 0.05 to 0.34 L/kg/h
  Clearance(s) of distribution: 0.78 L/kg/h
  clearance: 0.85 mL/min/kg
  half-life: 20 days
[2]; female, New Zealand white, rabbit, in vivo, MRT
  MRT: > 800 h
[2]; [22]
  AUC: 4.5 µM·h
[2]; [23]
  AUC: 271 µM·h
[2]; female, New Zealand white, rabbit, in vivo, po, Bioavailability
  bioavailability: 51%
[2]; mean
  tvK12 (distribution rate constant): 0.05299 h⁻¹
  tvK21 (distribution rate constant): 0.03851 h⁻¹
  tvVc (volume of the central compartment): 14.63 L/kg
  tvKabs (rate constant of absorption): 0.3488 h⁻¹
[2]; [25]
  Volume(s) of the peripheral compartment: 20 L/kg
[4]
  half-life: 32 days

## O=C(O)C(F)(F)C(F)(F)C(F)(F)C(F)(F)C(F)(F)C(F)(F)C(F)(F)F [PFOA, perfluorooctanoic acid]
[1]; [5]
  AUC(0-inf): 169 µM·h
  CL/F: 0.0953 mL/min/kg
  Cmax: 9070 nM
  MRT: 1.08 days
  Tmax: 4.05 h
  Vd/F: 0.64 L/kg
  bioavailability: > 100%
  half-life: 3.23 days
[1]; New Zealand white (INRA 1777 line), Serum concentration, oral, rabbit 13, 4.30 h, MEHP after oral DEHP
  concentration at 4.3 h: 6.04 µM
[1]; [6]
  concentration at 24 h: 2510 nM
[1]; New Zealand white (INRA 1777 line), Serum concentration, oral, rabbit 14, 0.37 h, MEHP after oral DEHP
  concentration at 0.37 h: 4.79 µM
[1]; New Zealand white (INRA 1777 line), Serum concentration, oral, rabbit 14, 4.17 h, MEHP after oral DEHP
  concentration at 4.17 h: 6.7 µM
[1]; [7]
  concentration at 24 h: 1530 nM
[1]; New Zealand white (INRA 1777 line), Serum concentration, oral, rabbit 15, 4.05 h, MEHP after oral DEHP
  concentration at 4.05 h: 9.07 µM
[1]; [8]
  concentration at 23.98 h: 2340 nM
[1]; New Zealand white (INRA 1777 line), Serum concentration, oral, rabbit 21, 12.00 h, MEHP after oral DEHP
  concentration at 12 h: 3.94 µM
[1]; [9]
  concentration at 168 h: 9.3 nM
[1]; [10]
  concentration at 672.02 h: 0.5 nM
[1]; [11]
  concentration at 671.96 h: 0.26 nM
[1]; [12]
  concentration at 672.02 h: 0.49 nM
[1]; New Zealand white, Serum concentration, oral, rabbit 16, 0.55 h, MEHP after oral DEHP
  concentration at 0.55 h: 2520 nM
[1]; [13]
  concentration at 72 h: 110 nM
[1]; New Zealand white, Serum concentration, oral, rabbit 17, 0.53 h, MEHP after oral DEHP
  concentration at 0.53 h: 2350 nM
[1]; [14]
  concentration at 72 h: 230 nM
[1]; New Zealand white, Serum concentration, oral, rabbit 18, 0.55 h, MEHP after oral DEHP
  concentration at 0.55 h: 4200 nM
[1]; [15]
  concentration at 71.96 h: 78 nM
[1]; New Zealand white, Serum concentration, oral, rabbit 19, 12.00 h, MEHP after oral DEHP
  concentration at 12 h: 4.88 µM
[1]; New Zealand white, Serum concentration, oral, rabbit 20, 12.00 h, MEHP after oral DEHP
  concentration at 12 h: 3.2 µM
[1]; [16]
  concentration at 168.02 h: 32 nM
[1]; [17]
  concentration at 168 h: 5 nM
[2]; PFOA 3-compartments model
  tvK13 (distribution rate constant): 0.0039 h⁻¹
  tvK31 (distribution rate constant): 0.0080 h⁻¹
[2]; PFOA three-compartment model, second peripheral compartment
  Volume(s) of the peripheral compartment, second value: 0.049 L/kg
[2]; [18]
  Vd: 0.19 L/kg
  k el: 2.08e-05 s⁻¹
[2]; [19]
  bioavailability: 100%
[2]; [20]
  MRT: 25 h
  half-life: 3.83 days
[2]; [21]
  clearance: < 0.167 mL/min/kg
[2]; [22]
  AUC: 26 µM·h
[2]; [23]
  AUC: 128 µM·h
[2]; [24]
  bioavailability: 100%
[2]
  AUCVO/dose: 133 μmol×h/L per μmol/kg BW
[2]; mean
  tvK12 (distribution rate constant): 0.047 h⁻¹
  tvK21 (distribution rate constant): 0.127 h⁻¹
  tvVc (volume of the central compartment): 0.101 L/kg
  tvKabs (rate constant of absorption): 1.408 h⁻¹
[2]; [25]
  Volume(s) of the peripheral compartment: 0.037 L/kg
[3]; ref Kudo and Kawashima 2003
  Intestinal absorption: 93%
